# The source made the active and inactive calls. No rule for the calls is given here.
# Tested on: CCRIS mutagenicity, Ames/micronucleus/aberration tests
# Assay: CCRIS mutagenicity studies
# [1] = Test System: AMES SALMONELLA TYPHIMURIUM, Strain/Indicator: TA98, Metabolic Activation: NONE, Method: PREINCUBATION
# [2] = Test System: AMES SALMONELLA TYPHIMURIUM, Strain/Indicator: TA100, Metabolic Activation: NONE, Method: PREINCUBATION
# [3] = Test System: AMES SALMONELLA TYPHIMURIUM, Strain/Indicator: TA1535, Metabolic Activation: NONE, Method: PREINCUBATION
# [4] = Test System: AMES SALMONELLA TYPHIMURIUM, Strain/Indicator: TA1535, Metabolic Activation: RAT, LIVER, S-9, AROCLOR 1254 (5%), Method: PREINCUBATION
# [5] = Test System: AMES SALMONELLA TYPHIMURIUM, Strain/Indicator: TA1537, Metabolic Activation: NONE, Method: PREINCUBATION
smiles,measurement,setting,value
CC(=O)Nc1ccc2ccc3ccc(O)c4ccc1c2c34,mutagenic call,"Test System: AMES SALMONELLA TYPHIMURIUM, Strain/Indicator: TA98(1,8-DNP6), Metabolic Activation: NONE, Method: STANDARD PLATE",inactive; negative
same,mutagenic call,"Test System: AMES SALMONELLA TYPHIMURIUM, Strain/Indicator: TA98(1,8-DNP6), Metabolic Activation: RAT, LIVER, S-9, AROCLOR 1254, Method: STANDARD PLATE",inactive; negative
same,mutagenic call,"Test System: AMES SALMONELLA TYPHIMURIUM, Strain/Indicator: YG1024, Metabolic Activation: NONE, Method: STANDARD PLATE",inactive; negative
same,mutagenic call,"Test System: AMES SALMONELLA TYPHIMURIUM, Strain/Indicator: YG1024, Metabolic Activation: RAT, LIVER, S-9, AROCLOR 1254, Method: STANDARD PLATE",inactive; negative
CCOC(=O)[C@H]1O[C@@H]1C(=O)N[C@@H](CC(C)C)C(=O)NCCC(C)C,mutagenic call,[1],inactive; negative
same,mutagenic call,"Test System: AMES SALMONELLA TYPHIMURIUM, Strain/Indicator: TA98, Metabolic Activation: NONE, Method: STANDARD PLATE",inactive; negative
same,mutagenic call,"Test System: AMES SALMONELLA TYPHIMURIUM, Strain/Indicator: TA98, Metabolic Activation: RAT, LIVER, S-9, Method: PREINCUBATION",inactive; negative
same,mutagenic call,"Test System: AMES SALMONELLA TYPHIMURIUM, Strain/Indicator: TA98, Metabolic Activation: RAT, LIVER, S-9, Method: STANDARD PLATE",inactive; negative
same,mutagenic call,[2],inactive; negative
same,mutagenic call,"Test System: AMES SALMONELLA TYPHIMURIUM, Strain/Indicator: TA100, Metabolic Activation: NONE, Method: STANDARD PLATE",inactive; negative
same,mutagenic call,"Test System: AMES SALMONELLA TYPHIMURIUM, Strain/Indicator: TA100, Metabolic Activation: RAT, LIVER, S-9, Method: PREINCUBATION",inactive; negative
same,mutagenic call,"Test System: AMES SALMONELLA TYPHIMURIUM, Strain/Indicator: TA100, Metabolic Activation: RAT, LIVER, S-9, Method: STANDARD PLATE",inactive; negative
same,mutagenic call,"Test System: AMES SALMONELLA TYPHIMURIUM, Strain/Indicator: TA1535, Metabolic Activation: NONE, Method: STANDARD PLATE",inactive; negative
same,mutagenic call,"Test System: AMES SALMONELLA TYPHIMURIUM, Strain/Indicator: TA1535, Metabolic Activation: RAT, LIVER, S-9, Method: STANDARD PLATE",inactive; negative
same,mutagenic call,"Test System: AMES SALMONELLA TYPHIMURIUM, Strain/Indicator: TA1537, Metabolic Activation: NONE, Method: STANDARD PLATE",inactive; negative
same,mutagenic call,"Test System: AMES SALMONELLA TYPHIMURIUM, Strain/Indicator: TA1537, Metabolic Activation: RAT, LIVER, S-9, Method: STANDARD PLATE",inactive; negative
same,mutagenic call,"Test System: E. COLI, Strain/Indicator: WP2 UVRA, Metabolic Activation: NONE, Method: STANDARD PLATE",inactive; negative
same,mutagenic call,"Test System: E. COLI, Strain/Indicator: WP2 UVRA, Metabolic Activation: RAT, LIVER, S-9, Method: STANDARD PLATE",inactive; negative
Nc1cc(Cl)ccc1O,mutagenic call,"End Point: In vitro chromosomal aberrations, Test System: Chinese hamster lung (CHL/IU) cells, Metabolic Activation: Rat, Liver, S9, Phenobarbital and 5,6-benzoflavone",active; positive (structural changes and ploidy). structural changes not dose related.
same,mutagenic call,"Test System: AMES SALMONELLA TYPHIMURIUM, Strain/Indicator: TA97, Metabolic Activation: HAMSTER, LIVER, S-9, AROCLOR 1254 (10%), Method: PREINCUBATION",inactive; negative
same,mutagenic call,"Test System: AMES SALMONELLA TYPHIMURIUM, Strain/Indicator: TA97, Metabolic Activation: HAMSTER, LIVER, S-9, AROCLOR 1254 (30%), Method: PREINCUBATION",inactive; negative
same,mutagenic call,"Test System: AMES SALMONELLA TYPHIMURIUM, Strain/Indicator: TA97, Metabolic Activation: NONE, Method: PREINCUBATION",inactive; negative
same,mutagenic call,"Test System: AMES SALMONELLA TYPHIMURIUM, Strain/Indicator: TA97, Metabolic Activation: RAT, LIVER, S-9, AROCLOR 1254 (10%), Method: PREINCUBATION",inactive; negative
same,mutagenic call,"Test System: AMES SALMONELLA TYPHIMURIUM, Strain/Indicator: TA97, Metabolic Activation: RAT, LIVER, S-9, AROCLOR 1254 (30%), Method: PREINCUBATION",inactive; negative
same,mutagenic call,"Test System: AMES SALMONELLA TYPHIMURIUM, Strain/Indicator: TA98, Metabolic Activation: HAMSTER, LIVER, S-9, AROCLOR 1254 (10%), Method: PREINCUBATION",inactive; negative
same,mutagenic call,[1],inactive; negative
same,mutagenic call,"Test System: AMES SALMONELLA TYPHIMURIUM, Strain/Indicator: TA98, Metabolic Activation: RAT, LIVER, S-9, AROCLOR 1254 (10%), Method: PREINCUBATION",inactive; negative
same,mutagenic call,"Test System: AMES SALMONELLA TYPHIMURIUM, Strain/Indicator: TA98, Metabolic Activation: RAT, LIVER, S-9, PHENOBARBITAL AND BETA-NAPHTHOFLAVONE, Method: PREINCUBATION",inactive; negative
same,mutagenic call,"Test System: AMES SALMONELLA TYPHIMURIUM, Strain/Indicator: TA100, Metabolic Activation: HAMSTER, LIVER, S-9, AROCLOR 1254 (10%), Method: PREINCUBATION",inactive; negative
same,mutagenic call,[2],inactive; negative
same,mutagenic call,"Test System: AMES SALMONELLA TYPHIMURIUM, Strain/Indicator: TA100, Metabolic Activation: RAT, LIVER, S-9, AROCLOR 1254 (10%), Method: PREINCUBATION",inactive; negative
same,mutagenic call,"Test System: AMES SALMONELLA TYPHIMURIUM, Strain/Indicator: TA1535, Metabolic Activation: HAMSTER, LIVER, S-9, AROCLOR 1254 (5%), Method: PREINCUBATION",active; positive
same,mutagenic call,"Test System: AMES SALMONELLA TYPHIMURIUM, Strain/Indicator: TA1535, Metabolic Activation: HAMSTER, LIVER, S-9, AROCLOR 1254 (10%), Method: PREINCUBATION",active; positive
same,mutagenic call,"Test System: AMES SALMONELLA TYPHIMURIUM, Strain/Indicator: TA1535, Metabolic Activation: HAMSTER, LIVER, S-9, AROCLOR 1254 (30%), Method: PREINCUBATION",active; positive
same,mutagenic call,[3],inactive; negative
same,mutagenic call,[4],active; positive
same,mutagenic call,"Test System: AMES SALMONELLA TYPHIMURIUM, Strain/Indicator: TA1535, Metabolic Activation: RAT, LIVER, S-9, AROCLOR 1254 (10%), Method: PREINCUBATION",active; positive
same,mutagenic call,"Test System: AMES SALMONELLA TYPHIMURIUM, Strain/Indicator: TA1535, Metabolic Activation: RAT, LIVER, S-9, AROCLOR 1254 (30%), Method: PREINCUBATION",inactive; negative
same,mutagenic call,"Test System: AMES SALMONELLA TYPHIMURIUM, Strain/Indicator: TA1535, Metabolic Activation: RAT, LIVER, S-9, PHENOBARBITAL AND BETA-NAPHTHOFLAVONE, Method: PREINCUBATION",inactive; negative
same,mutagenic call,[5],inactive; negative
same,mutagenic call,"Test System: E. COLI, Strain/Indicator: WP2UVRA, Metabolic Activation: NONE, Method: PREINCUBATION",inactive; negative
same,mutagenic call,"Test System: E. COLI, Strain/Indicator: WP2UVRA, Metabolic Activation: RAT, LIVER, S-9, PHENOBARBITAL AND BETA-NAPHTHOFLAVONE, Method: PREINCUBATION",inactive; negative
C[N+]1([O-])CCC[C@H]1c1cccnc1 (some centres not stated),mutagenic call,[1],inactive; negative
same,mutagenic call,"Test System: AMES SALMONELLA TYPHIMURIUM, Strain/Indicator: TA98, Metabolic Activation: RAT, LIVER, S-9, AROCLOR 1254 (5%), Method: PREINCUBATION",inactive; negative
same,mutagenic call,[2],inactive; negative
same,mutagenic call,"Test System: AMES SALMONELLA TYPHIMURIUM, Strain/Indicator: TA100, Metabolic Activation: RAT, LIVER, S-9, AROCLOR 1254 (5%), Method: PREINCUBATION",inactive; negative
same,mutagenic call,[3],inactive; negative
same,mutagenic call,[4],inactive; negative
same,mutagenic call,[5],inactive; negative
same,mutagenic call,"Test System: AMES SALMONELLA TYPHIMURIUM, Strain/Indicator: TA1537, Metabolic Activation: RAT, LIVER, S-9, AROCLOR 1254 (5%), Method: PREINCUBATION",inactive; negative
same,mutagenic call,"Test System: AMES SALMONELLA TYPHIMURIUM, Strain/Indicator: TA1538, Metabolic Activation: NONE, Method: PREINCUBATION",inactive; negative
same,mutagenic call,"Test System: AMES SALMONELLA TYPHIMURIUM, Strain/Indicator: TA1538, Metabolic Activation: RAT, LIVER, S-9, AROCLOR 1254 (5%), Method: PREINCUBATION",inactive; negative
